# “And” between values parts separate entries of the source, which are not always exact repeats. Equal values may be shown once. “Also recorded” adds a separate entry of the source. Non-standard residues stand in square brackets, D forms with d. No end group written: not given here. pG = not defined here
# Columns and labels:
# LHRH receptor = molecular target: T1, LHRH receptor (Homo sapiens, UniProt P30968); experiment: competitive binding assay with LHRH receptor antibody; assay type: cell-based; details: OVCAR3 and CAOV3 cells, siNT-Cy5.5 complexes, 4 hours
# T1 construct: endogenous in cells; host or cells: OVCAR3, CAOV3
# T1 sequence (P30968 1-328): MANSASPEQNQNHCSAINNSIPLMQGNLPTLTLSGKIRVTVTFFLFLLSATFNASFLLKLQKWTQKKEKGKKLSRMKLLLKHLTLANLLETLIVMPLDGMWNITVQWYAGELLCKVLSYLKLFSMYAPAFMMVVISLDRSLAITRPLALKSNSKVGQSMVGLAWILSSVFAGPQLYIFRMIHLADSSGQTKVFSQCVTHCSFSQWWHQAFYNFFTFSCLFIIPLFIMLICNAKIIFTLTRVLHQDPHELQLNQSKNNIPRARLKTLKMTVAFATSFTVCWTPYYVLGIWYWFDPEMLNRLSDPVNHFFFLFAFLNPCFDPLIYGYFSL
# Description: To analyze the specificity of the LHRH-DIV3W tandem peptide targeting LHRH receptor, a competitive binding assay was performed by incubating OVCAR3 and CAOV3 cells with GnRHR primary antibody (1:100) in 1× PBS overnight at 4° C. after being blocked with a 1% bovine serum albumin solution for 30 minutes at room temperature. LHRH-DIV3W-siNT-Cy5.5 complexes were delivered after the overnight primary antibody incubation and incubated again for 4 hours. Secondary SuperSignal Alexa Fluor 488 antibodies were delivered dropwise to cells following Invitrogen SuperSignal protocols and left to incubate at room temperature for 30 minutes and subsequently stained with SuperSignal NucBlue Hoescht 33342 for an additional 30 minutes at room temperature. Cells were imaged at 20× and 40× using an Evos FL microscope (Thermo Fisher).
# RNase A = experiment: gel assay of siRNA protection from RNase A degradation; assay type: in vitro ADME; details: 1 hour, several N:P ratios
# Description: Gel Shift Assays. DIVA3, DIV3H, and DIV3W (all three denoted as DIV3 (X)) peptides suspended in RNase-free water (10 μM), were thawed, and kept on ice prior to complexation with 10 μM of negative control siGENOME non-targeting siRNA #5 (siNT, GE Healthcare Dharmacon, Lafayette, CO) in RNase-free water and incubated for 20 minutes at room temperature to allow the formation of DIV3 (X)-siNT complexes. Various molar ratios of peptides were complexed with siNT at increasing N:P molar ratios to determine the minimum molar ratio necessary to completely complex free siRNAs using an electrophoretic mobility shift assay. To determine the ability of each peptide variant to protect siRNAs from degradation, DIV3 (X)-siNT complexes or siNT alone was left untreated or incubated with either 50% v/v FBS or 5 μg/mL RNase A at 37° C. for one hour. Next, complexes were dissociated using 6% sodium dodecyl sulfate (SDS). Samples were added to a 2% agarose gel and run at 100 V. Gels were stained with ethidium bromide, destained with Milli-Q water, and imaged using a ChemiDoc XRS imager (Bio-Rad, Hercules, CA).
# Characterization of Nanoparticle Size and Stability. To determine the minimum molar ratio necessary to completely complex free siRNAs, increasing N:P molar ratios of LHRH, DIV3W, and LHRH-DIV3W peptide were complexed with siRNAs and electrophoresed using a electrophoretic mobility shift assay. Molar ratios, shown as N:P, are representations of the molar amine peptide content in relation to 1 mole of phosphate group siRNA content. To determine the ability of the peptides to protect siRNAs from serum- or RNase-mediated degradation, LHRH and LHRH-DIV3W complexes were formed in RNase-free water with siNT at increasing N:P molar ratios and incubated at 37° C., 5% CO2, 50% v/v FBS, 5 μg/mL RNase A, or 50% v/v RNase free water for 1 hour. Peptide/siRNA complexes were dissociated using 6% sodium dodecyl sulfate (SDS) prior to electrophoresis in a 2% agarose gel run at 100 V. Gels were stained with ethidium bromide, washed with Milli-Q water, and imaged with a BioRad ChemiDoc XRS imager (BioRad, Hercules, CA).
# Peptides VA-LD and GF-LD, comprising the cleavable linker VA or GLFG, respectively, between the LHRH target sequence and the DIV3W peptide, and non targeting siRNA were electrostatically complexed at increasing N:P ratios then subjected to agarose gel electrophoresis to determine optimal siRNA binding for each peptide. […] Peptide-siRNA nanocomplexes at increasing N:P ratios for peptides for VA-LD (FIG. 30A) and GF-LD (FIG. 30C) were incubated in either Rnase A enzyme or in 50% fetal bovine serum (FBS) for 1 h, dissociated using SDS then subjected to gel electrophoresis to visualize siRNA bands. Gels showing increasing N:P ratios of peptide:siRNA for VA-LD (FIG. 30B) and GF-LD (FIG. 30D) from 20:1 to 80:1 N:P; white bands are indicative of intact siRNA
# OVCAR3 cells = experiment: cellular uptake of labeled siRNA by flow cytometry; assay type: cell-based; design: uptake efficiency higher than DIV3W uptake: concentration or dose not given beside the values; details: for uptake efficiency, tandem vs LHRH peptide: FIG. 10E, 4 hr, cell line not stated
# Description: Cellular Uptake. OVCAR3 and CAOV3 cells were prepared at 50,000 cells per well in a 24-well plate. […] Post-incubation, media was aspirated and cells were washed with 1× PBS. To counterstain the nuclei, SuperSignal NucBlue Hoechst stain (Thermo Fisher, Waltham, MA) was added to the cells for 30 minutes, followed by an additional 1×PBS wash. Subsequent imaging was performed using an EVOS FL Microscope (Thermo Fisher) at 10× magnification. For flow cytometric analysis, cells were detached, resuspended in 1× PBS, and analyzed using an Attune NXT Acoustic flow cytometer (Invitrogen, Carlsbad, CA) with the blue laser line and BL2 (574/26 nm) channel.
# Cellular Uptake and Targeting Specificity. Observation of cell uptake was performed by seeding OVCAR3 and CAOV3 cells at a density of 50,000 cells per well in a 24-well plate. LHRH and LHRH-DIV3W peptides were complexed with […] as previously described and delivered to cells at 20:1 to 80:1 N:P ratios. Each cell line was incubated with tandem peptide complexes for both 4- and 24-hour treatment periods. Following incubation, cell media was removed, and cells were washed with 1× PBS prior to the addition of 500 μL of 1×PBS and SuperSignal NucBlue Hoescht 33342 nuclear stain (Thermo Fisher, Waltham, MA). Cellular imaging was completed using an EVOS FL Microscope (Thermo Fisher) at 10×, 20×, and 40× magnification. Flow cytometry was completed after cell imaging and cells were trypsinized, resuspended in 1×PBS, and analyzed with an Attune NXT Acoustic Flow Cytometer (Invitrogen) with the red laser line and RL2 […] channel.
# Description for CAOV3 cells: Cells were seeded at 10,000 cells per well with complete culture media in a 96-well plate and incubated overnight to allow the cells to attach. DIV3 (X) peptides were complexed with siNT at 40:1 to 80:1 N:P molar ratios. DIV3 (X)-siNT complexes were incubated with OVCAR3 or CAOV3 cells at a final concentration of 100 nM siRNA and 10% FBS for 24 hours. Media was then aspirated, cells were washed with 1× phosphate-buffered saline (PBS), and fresh media with 10% FBS was added to each well and incubated another 24 hours.
# Viability was measured using an MTS Assay performed with CellTiter 96 AQueous One Solution Cell Proliferation Assay (Promega, Madison, WI). Assay reagent was added according to the manufacturer's protocol, and cells were incubated for 4 hours. Absorbance was read using a BioTek Synergy LX (BioTek, Winooksi, VT) plate reader at 490 nm. […]
# OVCAR3 or CAOV3 cells were seeded at 10,000 cells per well with complete culture media in a transparent 96-well plate and incubated overnight to allow the cells to attach. […] After 24 hours of incubation the media was exchanged and after another 24-hour incubation at 37° C. in 5% CO2, viability was measured using an MTS Assay performed with the CellTiter 96 AQueous One Solution Assay (Promega, Madison, WI). […] Absorbance was read using a BioTek Synergy LX (BioTek, Winooksi, VT) plate reader at 490 nm.
substance,measurement,setting,value
pGHWSY-(d) LLRPGGGGGWEADIVADIVWDIVADIVAGGG-(d) RRRRRRRRR ([pG]HWSY[dL]LRPGGGGGWEADIVADIVWDIVADIVAGGG[dR][dR][dR][dR][dR][dR][dR][dR][dR]; reading uncertain) [LHRH-DIV3W],siRNA internalization after preincubation with LHRH receptor antibody,LHRH receptor,siRNA internalization was drastically decreased; also recorded: minimal siRNA internalization
same,cytotoxicity of peptide alone,CAOV3 cells,did not cause cytotoxic effects
same,intact siRNA after incubation with RNase A,RNase A,Higher N:P ratios were required for full protection
same,"uptake efficiency, tandem vs LHRH peptide",OVCAR3 cells; 40:1,66.81%±4.3%
same,"uptake efficiency, tandem vs LHRH peptide",OVCAR3 cells; 60:1,72.59%±6.87%
same,"uptake efficiency, tandem vs LHRH peptide",OVCAR3 cells; 80:1,76.26%±14.9%
same,uptake efficiency higher than DIV3W uptake,OVCAR3 cells; OVCAR3,12%
same,uptake efficiency,"OVCAR3 cells; OVCAR3, siNT-Cy5.5, 4 hours, 80:1",79.58%+0.61% and 79.58%±1.05%
same,uptake efficiency,"OVCAR3 cells; OVCAR3, siNT-Cy5.5, 24 hours, 80:1",76.26%±15.56%
